# In ChEMBL document CHEMBL3885861, “Open TG-GATES”:
# Organism: Rattus norvegicus
# Test: Open TG-GATES - Regimen: Single
# Format: toxicity, organism-based, Sprague-Dawley
# Set-up: regimen Single, gender Male, age 6 weeks
# Settings: in vivo, po, 0 mg/kg, route gavage, dose level Control; for Bas / Eos / Lym / MCHC / MCV / Mono / Neu / RBC / Ret / WBC: tissue Blood; for KIDNEY_L / KIDNEY_R / KIDNEY_TOTAL: tissue Kidney; for LIVER: tissue Liver; for ALP / AST / CRE / DBIL / GLC / IP / K / LDH / Na / PL / RALB / TBIL / TC / TP / gamma-GTP: tissue Plasma
compound,measurement,setting,value
CS(=O)(=O)O.Cc1ccc(NC(=O)c2ccc(CN3CCN(C)CC3)cc2)cc1Nc1nccc(-c2cccnc2)n1 [IMATINIB MESYLATE],Bas,3 h,0%
same,Eos,3 h,0.6%
same,Lym,3 h,77.4%
same,MCHC,3 h,32.7%
same,MCV,3 h,64.2 fL
same,Mono,3 h,3%
same,Neu,3 h,18.6%
same,RBC,3 h,606.4 x10_4/ul
same,Ret,3 h,9.4%
same,WBC,3 h,98.6 x10_2/uL
same,KIDNEY_L,3 h,0.9 g
same,KIDNEY_R,3 h,0.9 g
same,KIDNEY_TOTAL,3 h,1.7 g
same,LIVER,3 h,9.6 g
same,ALP,3 h,1737 IU/L
same,AST,3 h,82.8 IU/L
same,CRE,3 h,0.2 mg/dL
same,DBIL,3 h,0.004 mg/dL
same,GLC,3 h,184 mg/dL
same,IP,3 h,8.3 mg/dL
same,K,3 h,4.1 meq/L
same,LDH,3 h,215.6 IU/L
same,Na,3 h,143.2 meq/L
same,PL,3 h,163.8 mg/dL
same,RALB,3 h,4.1 g/dL
same,TBIL,3 h,0.012 mg/dL
same,TC,3 h,86.8 mg/dL
same,TP,3 h,5.4 g/dL
same,gamma-GTP,3 h,0.8 IU/L
same,Bas,6 h,0%
same,Eos,6 h,0.4%
same,Lym,6 h,80.4%
same,MCHC,6 h,33.1%
same,MCV,6 h,63.3 fL
same,Mono,6 h,3%
same,Neu,6 h,15.2%
same,RBC,6 h,615.4 x10_4/ul
same,Ret,6 h,11.2%
same,WBC,6 h,112.4 x10_2/uL
same,KIDNEY_L,6 h,0.8 g
same,KIDNEY_R,6 h,0.8 g
same,KIDNEY_TOTAL,6 h,1.7 g
same,LIVER,6 h,8.7 g
same,ALP,6 h,1529.4 IU/L
same,AST,6 h,72.4 IU/L
same,CRE,6 h,0.2 mg/dL
same,DBIL,6 h,0.006 mg/dL
same,GLC,6 h,175.8 mg/dL
same,IP,6 h,9.6 mg/dL
same,K,6 h,4.2 meq/L
same,Na,6 h,139.7 meq/L
same,PL,6 h,152.4 mg/dL
same,RALB,6 h,4 g/dL
same,TBIL,6 h,0.022 mg/dL
same,TC,6 h,86.4 mg/dL
same,TP,6 h,5.5 g/dL
same,gamma-GTP,6 h,0.9 IU/L
same,Bas,9 h,0%
same,Eos,9 h,0.8%
same,Lym,9 h,76.4%
same,MCHC,9 h,33.4%
same,MCV,9 h,62.3 fL
same,Mono,9 h,2.2%
same,Neu,9 h,20.4%
same,RBC,9 h,617 x10_4/ul
same,Ret,9 h,9%
same,WBC,9 h,86 x10_2/uL
same,KIDNEY_L,9 h,0.9 g
same,KIDNEY_R,9 h,0.9 g
same,KIDNEY_TOTAL,9 h,1.8 g
same,LIVER,9 h,8.1 g
same,ALP,9 h,1372 IU/L
same,AST,9 h,76.6 IU/L
same,CRE,9 h,0.2 mg/dL
same,DBIL,9 h,0.01 mg/dL
same,GLC,9 h,170 mg/dL
same,IP,9 h,9.5 mg/dL
same,K,9 h,3.9 meq/L
same,LDH,9 h,175 IU/L
same,Na,9 h,140.3 meq/L
same,PL,9 h,140.2 mg/dL
same,RALB,9 h,4.1 g/dL
same,TBIL,9 h,0.016 mg/dL
same,TC,9 h,81.8 mg/dL
same,TP,9 h,5.5 g/dL
same,gamma-GTP,9 h,0.8 IU/L
same,Bas,24 h,0%
same,Eos,24 h,1%
same,Lym,24 h,81.4%
same,MCHC,24 h,32.9%
same,MCV,24 h,65.5 fL
same,Mono,24 h,2.4%
same,Neu,24 h,14.6%
same,RBC,24 h,607.4 x10_4/ul
same,Ret,24 h,9.3%
same,WBC,24 h,100.4 x10_2/uL
same,KIDNEY_L,24 h,0.9 g
same,KIDNEY_R,24 h,0.9 g
same,KIDNEY_TOTAL,24 h,1.8 g
same,LIVER,24 h,10 g
same,ALP,24 h,1682.4 IU/L
same,AST,24 h,68.2 IU/L
same,CRE,24 h,0.2 mg/dL
same,DBIL,24 h,0 mg/dL
same,GLC,24 h,199.8 mg/dL
same,IP,24 h,7.8 mg/dL
same,K,24 h,4.2 meq/L
same,LDH,24 h,195.2 IU/L
same,Na,24 h,142.7 meq/L
same,PL,24 h,149 mg/dL
same,RALB,24 h,4.1 g/dL
same,TBIL,24 h,0.004 mg/dL
same,TC,24 h,75.2 mg/dL
same,TP,24 h,5.8 g/dL
same,gamma-GTP,24 h,1 IU/L
